Assays:
DGKζ = DGKζ (Homo sapiens (Human), UniProt Q13574); assay: Biochemical DGK IC50 assay (ADP-Glo, lipid micelle substrate), DGKζ; settings: full length DGKζ 0.5 nM, ATP 140 μM, DAG 80 μM
Method in brief: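 ADP-Glo luminescence measured ADP made in a 1 h room-temperature reaction. The enzyme was Sf9-expressed, purified full-length human DGKζ, and the substrate was DAG/PS micelles. Assay buffer held 50 mM HEPES, 10 mM MgCl2, 0.01 mM CaCl2, 0.1 mM Na3VO4 and 0.01% BSA. IC50 was derived from activity inhibition over a compound concentration series.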

DGKα = DGKα (Homo sapiens (Human), UniProt P23743); assay: Biochemical DGK IC50 assay (ADP-Glo, lipid micelle substrate), DGKα; settings: full length DGKα […], ATP 140 μM, DAG 80 μM; note: full length DGKα 7.5 nM
DGKα, sequence (P23743 whole entry): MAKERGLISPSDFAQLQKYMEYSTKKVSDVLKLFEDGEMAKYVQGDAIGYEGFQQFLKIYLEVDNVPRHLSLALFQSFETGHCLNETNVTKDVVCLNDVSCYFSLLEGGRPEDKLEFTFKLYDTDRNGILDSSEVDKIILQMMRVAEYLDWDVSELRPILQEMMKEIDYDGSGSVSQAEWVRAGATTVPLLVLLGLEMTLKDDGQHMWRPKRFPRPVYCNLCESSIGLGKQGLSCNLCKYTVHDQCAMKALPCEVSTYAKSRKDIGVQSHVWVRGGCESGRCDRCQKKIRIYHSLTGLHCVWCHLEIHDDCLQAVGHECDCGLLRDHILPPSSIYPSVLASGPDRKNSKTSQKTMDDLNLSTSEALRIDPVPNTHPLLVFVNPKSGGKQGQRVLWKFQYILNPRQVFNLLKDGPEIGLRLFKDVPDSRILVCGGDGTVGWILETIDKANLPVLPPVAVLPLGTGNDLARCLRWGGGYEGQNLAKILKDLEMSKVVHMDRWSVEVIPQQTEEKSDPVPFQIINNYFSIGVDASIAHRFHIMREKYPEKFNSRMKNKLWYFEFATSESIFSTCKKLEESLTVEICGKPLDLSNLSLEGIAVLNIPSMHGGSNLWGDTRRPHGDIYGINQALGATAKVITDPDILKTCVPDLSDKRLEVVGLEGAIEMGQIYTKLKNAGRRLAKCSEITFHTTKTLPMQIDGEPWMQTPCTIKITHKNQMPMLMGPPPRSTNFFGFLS
Method in brief: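 Luminescent ADP-Glo detection followed a 1 h room-temperature reaction of full-length DGKα on DAG/PS micelles, in HEPES buffer with 10 mM MgCl2, 0.01 mM CaCl2, 0.1 mM Na3VO4, BSA and Tween-20. IC50 derived from inhibition across increasing compound concentrations.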

DGKζ, sequence (Q13574 other isoform, or with tags, fused parts or gaps): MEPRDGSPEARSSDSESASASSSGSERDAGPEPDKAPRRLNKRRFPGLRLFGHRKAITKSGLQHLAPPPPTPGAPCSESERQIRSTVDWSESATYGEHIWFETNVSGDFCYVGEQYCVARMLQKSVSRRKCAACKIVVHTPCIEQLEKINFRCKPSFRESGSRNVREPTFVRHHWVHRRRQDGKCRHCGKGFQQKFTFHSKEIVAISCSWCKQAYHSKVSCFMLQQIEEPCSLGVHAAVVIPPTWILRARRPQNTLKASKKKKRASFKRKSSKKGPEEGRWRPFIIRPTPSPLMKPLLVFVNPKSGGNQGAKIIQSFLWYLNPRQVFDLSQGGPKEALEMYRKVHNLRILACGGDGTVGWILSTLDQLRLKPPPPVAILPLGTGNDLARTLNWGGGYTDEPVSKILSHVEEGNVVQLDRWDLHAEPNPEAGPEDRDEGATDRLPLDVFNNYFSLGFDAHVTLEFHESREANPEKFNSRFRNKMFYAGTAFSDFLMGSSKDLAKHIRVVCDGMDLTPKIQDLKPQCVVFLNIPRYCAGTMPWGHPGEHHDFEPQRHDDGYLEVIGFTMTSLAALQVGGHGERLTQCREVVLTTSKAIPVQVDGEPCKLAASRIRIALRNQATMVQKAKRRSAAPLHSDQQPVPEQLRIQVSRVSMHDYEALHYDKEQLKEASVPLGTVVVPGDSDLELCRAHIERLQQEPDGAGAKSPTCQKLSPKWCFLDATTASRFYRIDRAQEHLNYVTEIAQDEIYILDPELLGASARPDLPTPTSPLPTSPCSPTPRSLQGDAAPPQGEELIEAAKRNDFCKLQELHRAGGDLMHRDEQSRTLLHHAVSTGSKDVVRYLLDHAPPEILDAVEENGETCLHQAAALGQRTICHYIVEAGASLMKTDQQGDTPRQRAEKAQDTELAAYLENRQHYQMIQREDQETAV

Row | SMILES | IC50 (DGKζ) [nM] | IC50 (DGKα) [nM]
1 | CC[C@H]1CN(C(C)c2ccn3nc(Cl)cc3n2)[C@H](CC)CN1c1cc(=O)n(C)c2cn(CC#N)nc12 (stereo partly drawn) [Compound A175, 2-(7-((2S,5R)-4-(1-(2-chloropyrazolo[1,5-a]pyrimidin-5-yl)ethyl)-2,5-diethylpiperazin-1-yl)-4-methyl-5-oxo-4,5-dihydro-2H-pyrazolo[4,3-b]pyridin-2-yl)acetonitrile] | 79 | 32
2 | CC[C@H]1CN(C(C)c2cn3ncccc3n2)[C@H](CC)CN1c1cc(=O)n(C)c2cn(CC#N)nc12 (stereo partly drawn) [Compound A180, 2-(7-((2S,5R)-2,5-diethyl-4-(1-(imidazo[1,2-b]pyridazin-2-yl)ethyl)piperazin-1-yl)-4-methyl-5-oxo-4,5-dihydro-2H-pyrazolo[4,3-b]pyridin-2-yl)acetonitrile] | 1180 | 2450
3 | CC[C@H]1CN(C(C)c2nc3cccnc3s2)[C@H](CC)CN1c1cc(=O)n(C)c2cn(CC#N)nc12 (stereo partly drawn) [Compound A181, 2-(7-((2S,5R)-2,5-diethyl-4-(1-(thiazolo[5,4-b]pyridin-2-yl)ethyl)piperazin-1-yl)-4-methyl-5-oxo-4,5-dihydro-2H-pyrazolo[4,3-b]pyridin-2-yl)acetonitrile] | 178 | 470
4 | CC[C@H]1CN(C(C)c2ccc(CN3CCC(F)(F)CC3)cn2)[C@H](CC)CN1c1cc(=O)n(C)c2cn(CC#N)nc12 (stereo partly drawn) [Compound A182, 2-(7-((2S,5R)-4-(1-(5-((4,4-difluoropiperidin-1-yl)methyl)pyridin-2-yl)ethyl)-2,5-diethylpiperazin-1-yl)-4-methyl-5-oxo-4,5-dihydro-2H-pyrazolo[4,3-b]pyridin-2-yl)acetonitrile] | 281 | 54
5 | CC[C@H]1CN(C(C)c2ccc(CC3COC3)cc2)[C@H](CC)CN1c1cc(=O)n(C)c2cn(CC#N)nc12 (stereo partly drawn) [Compound A183, 2-(7-((2S,5R)-2,5-diethyl-4-(1-(4-(oxetan-3-ylmethyl)phenyl)ethyl)piperazin-1-yl)-4-methyl-5-oxo-4,5-dihydro-2H-pyrazolo[4,3-b]pyridin-2-yl)acetonitrile] | 517 | 48.2
6 | CC[C@H]1CN(C(C)c2ccc3c(c2)OCO3)[C@H](CC)CN1c1cc(=O)n(C)c2cn(CC#N)nc12 (stereo partly drawn) [Compound A185, 2-(7-((2S,5R)4-(1-(benzo[d][1,3]dioxol-5-yl)ethyl)-2,5-diethylpiperazin-1-yl)-4-methyl-5-oxo-4,5-dihydro-2H-pyrazolo[4,3-b]pyridin-2-yl)acetonitrile] | 66.4 | 164
7 | CC[C@H]1CN(C(C)c2ccc(CC#N)cc2)[C@H](CC)CN1c1cc(=O)n(C)c2cn(CC#N)nc12 (stereo partly drawn) [Compound A190, 2-(4-(1-((2R,5S)-4-(2-(cyanomethyl)-4-methyl-5-oxo-4,5-dihydro-2H-pyrazolo[4,3-b]pyridin-7-yl)-2,5-diethylpiperazin-1-yl)ethyl)phenyl)acetonitrile] | 651 | 45
8 | CC[C@H]1CN(C(C)c2ccc(C#N)cc2)[C@H](CC)CN1c1cc(=O)n(C)c2cn(CC#N)nc12 (stereo partly drawn) [Compound A191, 4-(1-((2R,5S)-4-(2-(cyanomethyl)-4-methyl-5-oxo-4,5-dihydro-2H-pyrazolo[4,3-b]pyridin-7-y)-2,5-diethylpiperazin-1-yl)ethyl)benzonitrile] | 285 | < 23.3
9 | CC[C@H]1CN(C(C)c2ccc(CN3CCS(=O)(=O)CC3)cc2)[C@H](CC)CN1c1cc(=O)n(C)c2cn(CC#N)nc12 (stereo partly drawn) [Compound A192, 2-(7-((2S,5R)-4-(1-(4-((1,1-dioxidothiomorpholino)methyl)phenyl)ethyl)-2,5-diethylpiperazin-1-yl)-4-methyl-5-oxo-4,5-dihydro-2H-pyrazolo[4,3-b]pyridin-2-yl)acetonitrile] | 579 | 729
10 | CC[C@H]1CN(C(C)c2cc3c(cn2)OCC3)[C@H](CC)CN1c1cc(=O)n(C)c2cn(CC#N)nc12 (stereo partly drawn) [Compound A196, 2-(7-((2S,5R)-4-(1-(2,3-dihydrofuro[2,3-c]pyridin-5-yl)ethyl)-2,5-diethylpiperazin-1-yl)-4-methyl-5-oxo-4,5-dihydro-2H-pyrazolo[4,3-b]pyridin-2-yl)acetonitrile] | 552 | 1020
11 | CC[C@H]1CN(C(C)c2ccc3c(c2)OC(F)(F)O3)[C@H](CC)CN1c1cc(=O)n(C)c2cn(CC#N)nc12 (stereo partly drawn) [Compound A197, 2-(7-((2S,5R)-4-(1-(2,2-difluorobenzo[d][1,3]dioxol-5-yl)ethyl)-2,5-diethylpiperazin-1-yl)-4-methyl-5-oxo-4,5-dihydro-2H-pyrazolo[4,3-b]pyridin-2-yl)acetonitrile] | 252 | 711
12 | CC[C@H]1CN(C(C)c2ccc(CS(C)(=O)=O)cc2)[C@H](CC)CN1c1cc(=O)n(C)c2cn(CC#N)nc12 (stereo partly drawn) [Compound A198, 2-(7-((2S,5R)-2,5-diethyl-4-(1-(4-((methylsulfonyl)methyl)phenyl)ethyl)piperazin-1-yl)-4-methyl-5-oxo-4,5-dihydro-2H-pyrazolo[4,3-b]pyridin-2-yl)acetonitrile] | 5560 | 91
13 | CC[C@H]1CN(C(C)c2ccc(C(C)(F)F)nc2)[C@H](CC)CN1c1cc(=O)n(C)c2cn(CC#N)nc12 (stereo partly drawn) [Compound A199, 2-(7-((2S,5R)-4-(1-(6-(1,1-difluoroethyl)pyridin-3-yl)ethyl)-2,5-diethylpiperazin-1-yl)-4-methyl-5-oxo-4,5-dihydro-2H-pyrazolo[4,3-b]pyridin-2-yl)acetonitrile] | 112 | 2170
14 | CC#CCn1cc2c(n1)c(N1C[C@@H](CC)N(C(C)c3ccc4c(n3)OCC4)C[C@@H]1C)cc(=O)n2C (stereo partly drawn) [Compound A200, 2-(but-2-yn-1-yl)-7-((2S,5R)-4-(1-(2,3-dihydrofuro[2,3-b]pyridin-6-yl)ethyl)-5-ethyl-2-methylpiperazin-1-yl)-4-methyl-2,4-dihydro-5H-pyrazolo[4,3-b]pyridin-5-one] | 991 | < 23.3
15 | CC[C@H]1CN(C(C)c2ccc(OC3CC3)cn2)[C@H](CC)CN1c1cc(=O)n(C)c2cn(CC#N)nc12 (stereo partly drawn) [Compound A201, 2-(7-((2S,5R)-4-(1-(5-cyclopropoxypyridin-2-yl)ethyl)-2,5-diethylpiperazin-1-yl)-4-methyl-5-oxo-4,5-dihydro-2H-pyrazolo[4,3-b]pyridin-2-yl)acetonitrile] | 123 | 43
16 | CC[C@H]1CN(C(C)c2ccc(C(=O)N3CCC(OC)C3)cc2)[C@H](CC)CN1c1cc(=O)n(C)c2cn(CC#N)nc12 (stereo partly drawn) [Compound A202, 2-(7-((2S,5R)-2,5-diethyl-4-(1-(4-(3-methoxypyrrolidine-1-carbonyl)phenyl)ethyl)piperazin-1-yl)-4-methyl-5-oxo-4,5-dihydro-2H-pyrazolo[4,3-b]pyridin-2-yl)acetonitrile] | 3210 | 352
17 | CC[C@H]1CN(C(C)c2ccc(COC)cc2)[C@H](CC)CN1c1cc(=O)n(C)c2cn(CC#N)nc12 (stereo partly drawn) [Compound A205, 2-(7-((2S,5R)-2,5-diethyl-4-(1-(4-(methoxymethyl)phenyl)ethyl)piperazin-1-yl)-4-methyl-5-oxo-4,5-dihydro-2H-pyrazolo[4,3-b]pyridin-2-yl)acetonitrile] | 142 | 215

— patent US20250346597A1, “CONDENSED HETEROCYCLIC COMPOUNDS AS INHIBITOR OF DIACYLGLYCEROL KINASES” (BEONE MEDICINES I GMBH, priority 2023, published 2025)
